# Measurements from the supplement of paper PMC10307832.
# Experiments:
# Assay in all cases: relative viability (nuclei count vs DMSO), 5 days (fraction); higher = more cells survive
# Entinostat + Crizotinib = compound: Nc1ccccc1NC(=O)c1ccc(CNC(=O)OCc2cccnc2)cc1 [Entinostat] + C[C@@H](Oc1cc(-c2cnn(C3CCNCC3)c2)cnc1N)c1c(Cl)ccc(F)c1Cl [Crizotinib] (partner 1 µM)
# Outline: (§1)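 The day after seeding in 1536-well plates, lung cancer cell lines were treated by pin tool with a single drug, or with a fixed anchor-drug dose together with five library-drug doses (not always all listed) in √10 steps. After 5 days, a combined fix-and-stain solution (final 0.05% Triton X-100, 1% formaldehyde, 1 ug/ml Hoechst) was added. Nuclei counted on 4× images gave relative viability as treated counts over vehicle counts, reported as the median of duplicate plates.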
# Entinostat + OSI-027 = compound: Nc1ccccc1NC(=O)c1ccc(CNC(=O)OCc2cccnc2)cc1 [Entinostat] + COc1cccc2cc(-c3nc([C@H]4CC[C@H](C(=O)O)CC4)n4ncnc(N)c34)[nH]c12 [OSI-027] (partner 0.5 µM)
# Outline: as §1
# [1] = compound: C1COCCN1C2=NC(=NC3=C2OC4=C3C=CC=N4)C5=CC(=CC=C5)NC(=O)C6=CN=C(C=C6)N + O=C(CCCCCCC(=O)Nc1ccccc1)NO [Vorinostat] (partner 1 µM)
# Outline: as §1
Cell Line,relative viability (Entinostat + Crizotinib; first compound 0.02 µM),relative viability (Entinostat + Crizotinib; first compound 0.06325 µM),relative viability (Entinostat + Crizotinib; first compound 0.2 µM),relative viability (Entinostat + Crizotinib; first compound 0.6325 µM),relative viability (Entinostat + Crizotinib; first compound 2 µM),relative viability (Entinostat + OSI-027; first compound 0.02 µM),relative viability (Entinostat + OSI-027; first compound 0.06325 µM),relative viability (Entinostat + OSI-027; first compound 0.2 µM),relative viability (Entinostat + OSI-027; first compound 0.6325 µM),relative viability (Entinostat + OSI-027; first compound 2 µM),relative viability ([1]; first compound 0.02 µM),relative viability ([1]; first compound 0.06325 µM),relative viability ([1]; first compound 0.2 µM),relative viability ([1]; first compound 0.6325 µM),relative viability ([1]; first compound 2 µM)
NCI-H727,0.765,0.731,0.693,0.628,0.342,0.679,0.808,0.5,0.493,0.398,1.14,1.22,1.05,1.22,1.12
HCC-366,0.447,0.407,0.283,0.0613,0.0249,0.922,0.972,0.854,0.214,0.0783,0.395,0.36,0.327,0.444,0.249
SW 1573,0.848,0.865,0.937,0.761,0.592,0.639,0.832,0.617,0.598,0.54,0.737,0.953,0.705,0.552,0.451
HCC-44,0.773,0.614,0.453,0.339,0.22,0.53,0.518,0.333,0.182,0.176,1.03,1.15,1.2,1.22,1.02
A-427,0.808,1.06,0.864,0.665,0.545,0.505,0.489,0.403,0.395,0.343,0.831,0.904,0.855,0.838,0.798
NCI-H441,0.715,0.744,0.523,0.215,0.181,0.592,0.562,0.592,0.308,0.233,0.759,0.918,0.798,0.701,0.377
ABC-1,0.925,1.24,1.17,0.814,0.28,0.446,0.524,0.544,0.351,0.247,1.1,0.976,0.81,1.22,0.789
LK-2,0.252,0.234,0.227,0.255,0.248,0.221,0.187,0.188,0.188,0.18,0.125,0.317,0.247,0.273,0.257
NCI-H2085,0.991,0.933,0.769,0.57,0.414,0.737,0.625,0.676,0.334,0.293,0.736,0.802,0.75,0.704,0.706
NCI-H647,1.1,0.966,0.749,0.301,0.102,0.677,0.537,0.562,0.302,0.179,0.625,0.757,0.502,0.433,0.29
SK-MES-1,0.984,1.03,1.09,0.955,0.67,0.584,0.66,0.792,0.595,0.532,1.12,1.22,1.09,1.03,0.72
LC-2-ad,0.521,0.4,0.36,0.296,0.241,0.768,0.842,0.578,0.349,0.27,0.712,0.695,0.738,0.702,0.508
NCI-H3122,0.28,0.265,0.319,0.313,0.334,1.01,1.08,0.998,0.823,0.191,0.924,1.09,0.946,1.06,0.639
LCLC-97TM1,0.285,0.435,0.303,0.273,0.151,0.583,0.462,0.51,0.408,0.43,0.804,0.862,0.751,0.755,0.43
NCI-H520,0.735,0.613,0.779,0.413,0.251,0.335,0.277,0.274,0.385,0.407,0.74,0.747,0.77,0.699,0.451
NCI-H358,0.545,0.519,0.463,0.209,0.0928,0.879,0.992,0.796,0.496,0.169,0.727,0.723,0.688,0.644,0.332
NCI-H1755,0.832,0.827,0.771,0.462,0.347,0.693,0.776,0.684,0.566,0.309,0.7,0.868,0.698,0.635,0.562
EPLC-272H,0.924,0.872,0.933,0.61,0.322,0.285,0.359,0.314,0.245,0.214,0.339,0.487,0.286,0.429,0.53
NCI-H2228,0.479,0.429,0.337,0.378,0.221,0.695,0.595,0.416,0.266,0.208,0.469,0.743,0.464,0.529,0.39
